Reference: patent publication US11160808B2, “Compounds that enhance Atoh1 expression” (Massachusetts Eye & Ear Infirmary, priority 2008, dated 2021)
Read-outs that look alike come from different tables or passages of the source.

How the values were obtained:
[1] = system: Math1 enhancer and minimal promoter Luciferase reporter in HEK cells; experiment: Math1 Luciferase reporter assay in HEK cells; format: cell-based, human
Source text: A human embryonic kidney (HEK) cell line stably expressing a Luciferase gene controlled by an Math1 enhancer and minimal promoter was used in a high-throughput screen (HTS) of 144,000 small molecules to identify compounds that increase Math1 expression (i.e., transcription and/or translation). Such compounds can be used to increase the conversion of stem cells, progenitor cells, and support cells to or towards a hair cell. Screens to identify such compounds are described by Li et al., (U.S. Publication No. 2005/0287127) and Li et al., (U.S. application Ser. No. 11/953,797).
HEK cells stably expressing the Math1 Luciferase reporter were plated onto 384 well plates and cultured overnight in medium containing 10% fetal calf serum (FCS). Activation of the Math1 enhancer was measured by the increase in luminescence on a plate reader following addition of a luciferase detection agent. The assay was optimized for cell number, time of incubation, volume of medium, cell lysis reagent and luciferase reagent. Luminescence levels were compared in cells with the Math1-luciferase construct with and without retinoic acid (1 μM), and/or a luciferase construct with and without the Math1 enhancer and minimal promoter region.
To improve assay sensitivity, and reduce the coefficient of variation (CV), a more sensitive luciferase reagent (BriteLite luciferase reporter assay reagent, Perkin Elmer) was used, and Triton-X-100 was added to the lysis reagent to ensure complete lysis of the cells. Following these changes a CV of 4.2% was recorded. These conditions were used for all high-throughput screens. The luminescence threshold for a compound to be positive was defined as a 2-fold increase above the control (e.g., cells exposed to DMSO).
Cells were seeded on 384 well plates and allowed to attach overnight at 37° C. with 5% CO2 in the absence of growth factors. Math1 activation was measured by the increase in luminescence on a plate reader following addition of a luciferase detection reagent. Luminescence was assessed at 24, 48, and 72 hours. These conditions were used to screen 144,000 compounds contained in the small molecule libraries at Harvard University's Laboratory for Drug Discovery in Neurodegeneration (LDDN).
HTS were performed using HEK-Math1 cells seeded in 384 well plates. One compound was added per well using pin transfer. The final concentration of each compound was […]. Cell were incubated in the presence of a compound for 48 hours at 37° C. with 5% CO2. Cell lysates then were collected and bioluminescence determined. Luminescence values were compared normalized against DMSO.
About 20000 compounds were screened per week in 50 plates of 384 well with the aid of robotic systems (Beckman Biomek FX). Compounds were screened at an average final concentration of 0.7 μM (in 0.04% DMSO) with each plate containing 16 wells of 1 μM retinoic acid, as a positive control, and 16 wells of 0.04% DMSO, as a vehicle control. Percent activation of luminescence in the test compounds was determined for cells treated with the compounds against cells treated with DMSO.
Ten compounds, randomly selected from the group of 110 compounds identified in Example 2, were further evaluated, as follows. HEK cells were plated on 96 well plates at a density of 100000 cells per well. One day after plating, 0.1, 1, and 5 μM of each positive compound was added per well in a 10% fetal bovine serum (FBS) DMEM solution. Cells were then lysed 48 hours after addition of the compound and Math1 expression was analyzed using a luciferase reporter assay, as described above, and real-time PCR.
The half maximal inhibitory concentration (IC50) and median lethal dose or Lethal Dose, 50% (LD50) were determined for each of the compounds identified in Example 2 using standard laboratory techniques. IC50 is a measure of the effectiveness of a compound in inhibiting biological or biochemical function. LD50 is the amount of a compound required to kill half the members of a tested population.

[2] = LD50 (median lethal dose) determination; format: cell-based
Source text: IC50 is a measure of the effectiveness of a compound in inhibiting biological or biochemical function. LD50 is the amount of a compound required to kill half the members of a tested population.

[3] = Homo sapiens, HEK293; read-out: IC50
[4] = Homo sapiens, HEK293; read-out: Maximum (Fold DMSO)

Row | Compound | IC50 [1, 3] [nM] | maximal fold induction [1, 4] | LD50 [2] [µM] | IC50 ([1]; Homo sapiens, HEK293) [nM] | maximal fold induction ([1]; Homo sapiens, HEK293, read-out: Maximum (Fold DMSO)) | increase in luciferase activity ([1]; 1 μM, compared to non-treated cells) [fold]
1 | Nc1nn(-c2ncnc3c2[nH]c2ccccc23)cc1-c1ccc(Cl)cc1 [CP-0000477, 4-(4-chlorophenyl)-1-(5H-pyrimido[5,4-b]indol-4-yl)-1H-pyrazol-3-amine] | 2000 | 2 | >30 |  |  | 
2 | COc1ccc(-c2nc3ccc(Cl)cc3n2OCc2ccccc2Cl)cc1 [CP-0000550, 6-chloro-1-(2-chlorobenzyloxy)-2-(4-methoxyphenyl)-1H-benzo[d]imidazole] | 30 | 2 | >30 |  |  | 
3 | COc1ccc(-c2nc3ccc(Cl)cc3n2OCc2ccc(C)cc2)cc1 [CP-0000553, 6-chloro-2-(4-methoxyphenyl)-1-(4-methylbenzyloxy)-1H-benzo[d]imidazole] | 10 | 2 | >30 |  |  | 
4 | COc1ccc(-c2nc3ccc(Cl)cc3n2OCc2cc(C)cc(C)c2)cc1 [CP-0000554, 6-chloro-1-(3,5-dimethylbenzyloxy)-2-(4-methoxyphenyl)-1H-benzo[d]imidazole] | 400 | 2 | >30 |  |  | 
5 | COc1ccc(COn2c(-c3ccc(OC)cc3)nc3ccc(Cl)cc32)cc1 [CP-0000557, 6-chloro-1-(4-methoxybenzyloxy)-2-(4-methoxyphenyl)-1H-benzo[d]imidazole] | 20 | 2.6 | 30 |  |  | 
6 | Cc1ccc(COn2c(-c3ccccc3)nc3ccc([N+](=O)[O-])cc32)cc1 [CP-0000571, 1-(4-methylbenzyloxy)-6-nitro-2-phenyl-1H-benzo[d]imidazole] | 300 | 2 | >30 |  |  | 
7 | COc1cccc2c1OCC(C(=O)Nc1ccc(Cl)cc1Cl)=C2 [CP-0000928, N-(2,4-dichlorophenyl)-8-methoxy-2H-chromene-3-carboxamide] | 300 | 2 | >10 |  |  | 
8 | O=C(NNC(=S)Nc1ccc(F)cc1)c1ccccc1Cl [CP-0005186, 2-(2-chlorobenzoyl)-N-(4-fluorophenyl)hydrazine-carbothioamide] | 1000 | 1.8 | >10 |  |  | 
9 | CNc1ccccc1C(=O)NCCc1ccccc1 [CP-0007991, 2-(methylamino)-N-phenethylbenzamide] | 600 | 2 | >10 |  |  | 
10 | CN(C)c1ccc(C2NN=C(c3ccc(Cl)cc3)N2)cc1 (stereo not shown) [CP-0007994, 4-(3-(4-chlorophenyl)-4,5-dihydro-1H-1,2,4-triazol-5-yl)-N,N-dimethylaniline] | 1000 | 1.9 | >10 |  |  | 
11 | CC(=O)c1sc(-c2ccc(C(C)(C)C)cc2)cc1N [CP-0008545, 1-(3-amino-5-(4-tert-butylphenyl)thiophen-2-yl)ethanone] | 400 | 2.5 | >10 |  |  | 
12 | O=C(Cn1nnc2ccccc21)NC1Cc2ccccc2C1 [CP-0009883, 2-(1H-benzo[d][1,2,3]triazol-1-yl)-N-(2,3-dihydro-1H-inden-2-yl)acetamide] | 2500 | 2.3 | >10 |  |  | 
13 | c1ccc2cc(-c3cc4ccccc4[nH]3)ccc2c1 [CP-0010539, 2-(naphthalen-2-yl)-1H-indole] | 500 | 2.1 | >10 |  |  | 
14 | Cc1cccc(NC(=O)c2ccc3c(c2)OCCO3)n1 [CP-0029278, N-(6-methylpyridin-2-yl)-2,3-dihydrobenzo [b][1,4]dioxine-6-carboxamide] | 500 | 1.9 | >10 |  |  | 
15 | O=C(CSc1nc2ccccc2o1)Nc1ccccc1Cl [CP-0029300, 2-(benzo[d]oxazol-2-ylthio)-N-(2-chlorophenyl)acetamide] | 1600 | 2 | >10 |  |  | 
16 | CC(C)COc1ccc(C2Nc3ccccc3C(=O)N2c2ccc3ccccc3c2)cc1 (stereo not shown) [CP-0034360, 2-(4-isobutoxyphenyl)-3-(naphthalen-2-yl)-2,3-dihydroquinazolin-4(1H)-one] | 1000 | 2 | >10 |  |  | 
17 | O=C(CSc1nc2ccccc2c(=O)n1NC(=O)c1ccccc1)c1ccc(F)cc1 [CP-0036187, N-(2-(2-(4-fluorophenyl)-2-oxoethylthio)-4-oxoquinazolin-3(4H)-yl)benzamide] | 1000 | 2.3 | >10 |  |  | 
18 | COc1ccc(C2=NN3C(C2)c2cccc(OC)c2OC32CCCCC2)cc1 (stereo not shown) [CP-0039073, 7-methoxy-2-(4-methoxyphenyl)-1,10b-dihydrospiro[benzo[e]pyra-zolo[1,5-c][1,3]oxazine-5,1′-cyclohexane]] | 1500 | 2.4 | >10 |  |  | 
19 | Cc1ccc(-c2cnc3ccccc3n2)cc1C [CP-0045061, 2-(3,4-dimethylphenyl) quinoxaline] | 3000 | 1.9 | >10 |  |  | 
20 | Oc1ccc(-c2nc3ccccc3[nH]2)cc1 [CP-0047659, 4-(1H-benzo[d]imidazol-2-yl)phenol] | 1300 | 2.3 | >10 |  |  | 
21 | COc1ccc(C2C=C(c3ccc(Cl)cc3)Nc3nc4ccccc4n32)cc1 (stereo not shown) [CP-0050095, 2-(4-chlorophenyl)-4-(4-methoxyphenyl)-1,4-dihydrobenzo[4.5]imi-dazo[1,2-a]pyrimidine] |  |  | >10 | 1500 | 2.6 | 
22 | COCCNc1ncc(-c2ccc(C)cc2)cn1 [CP-0059547, N-(2-methoxyethyl)-5-p-tolylpyrimidin-2-amine] | 1000 | 2 | >10 |  |  | 
23 | c1ccc2sc(-c3cnc(N4CCOCC4)nc3)cc2c1 [CP-0059563, 4-(5-(benzo[b]thiophen-2-yl)pyrimidin-2-yl)morpholine] | > 10000 | 1.9 | >10 |  |  | 
24 | Fc1ccc(-c2cnc(N3CCOCC3)nc2)cc1 [CP-0059642, 4-(5-(4-fluorophenyl)pyrimidin-2-yl)morpholine] | 1000 | 2.2 | >10 |  |  | 
25 | O=C(Nc1ccc(Cl)cn1)c1ccc(Br)cc1 [CP-0060729, 4-bromo-N-(5-chloropyridin-2-yl)benzamide] | 200 | 1.6 | >10 |  |  | 
26 | N#Cc1c(NC(=O)c2ccccc2F)sc2c1CCCC2 [CP-0060852, N-(3-cyano-4,5,6,7-tetrahydrobenzo[b]thio-phen-2-yl)-2-fluorobenzamide] | 2500 | 1.8 | >10 |  |  | 
27 | COc1ccc(-c2cn3ccsc3n2)cc1 [CP-0061401, 6-(4-methoxyphenyl) imidazo[2,1-b]thiazole] | 600 | 1.8 | >10 |  |  | 
28 | CC(C)(C)c1ccc(C(=O)NCC2CCCO2)cc1 (stereo not shown) [CP-0061566, 4-tert-butyl-N-((tetrahydrofuran-2-yl)methyl)benzamide] | 200 | 2 | >10 |  |  | 
29 | CC1=C(/C=C/C(C)=C/C=C/C(C)=C/C(=O)O)C(C)(C)CCC1 [retinoic acid, reference compound] |  |  |  |  |  | 1.8
